Reference: patent US7863271B2, “2-aminobenzoxazole carboxamides as 5HT3 modulators” (Albany Molecular Research, Inc., priority 2006, dated 2011)
Counter-ions that a name gives are not always drawn.

What follows are molecules tested against T1, 5-HT3 (Homo sapiens, UniProt P46098) (assay: Compound affinity for the human 5-HT3 receptor (Assay B), SPA radioligand binding with [9-methyl-3H]BRL-43694). Conditions: Assay B (method B unless otherwise annotated); read-out: 5-HT3 Ki.
T1 sequence (P46098 24-478): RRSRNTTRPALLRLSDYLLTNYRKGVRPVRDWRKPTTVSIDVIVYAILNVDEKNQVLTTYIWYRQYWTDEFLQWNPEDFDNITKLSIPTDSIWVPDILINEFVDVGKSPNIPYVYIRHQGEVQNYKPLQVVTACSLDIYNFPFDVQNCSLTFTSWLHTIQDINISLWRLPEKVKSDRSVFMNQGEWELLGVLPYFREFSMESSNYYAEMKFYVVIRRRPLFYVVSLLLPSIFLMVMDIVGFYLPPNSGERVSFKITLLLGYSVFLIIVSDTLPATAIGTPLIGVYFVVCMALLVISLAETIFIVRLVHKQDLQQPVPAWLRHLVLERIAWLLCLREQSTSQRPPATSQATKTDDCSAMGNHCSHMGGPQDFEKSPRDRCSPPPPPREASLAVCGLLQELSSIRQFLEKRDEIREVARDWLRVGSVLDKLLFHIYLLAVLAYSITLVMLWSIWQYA
Parameters: purchased Perkin Elmer
Method in brief: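 Ten competitor concentrations in duplicate; specific binding (total minus nonspecific) fitted for IC50, converted to Ki by Cheng-Prusoff.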

Point of comparison: CN1CCN(c2nc3c(C(=O)N[C@H]4C[C@H]5CCC[C@@H](C4)N5C)cc(Cl)cc3o2)CC1 [Example 58, Endo-N-(9-methyl-9-azabicyclo[3.3.1]nonan-3-yl)-6-chloro-2-(4-methylpiperazin-1-yl)benzoxazole-4-carboxamide Hydrochloride], Ki 0.0119 µM. Against it:
- C[C@H]1CNC[C@H](C)N1c1nc2c(C(=O)NC3CC4CCCC(C3)N4C)ccc(F)c2o1 (stereo partly drawn) [Example 107, Endo-N-(9-Methyl-9-azabicyclo[3.3.1]nonan-3-yl)-2-((2S,6S)-2,6-dimethylpiperazine-1-yl)-7-fluorobenzoxazole-4-carboxamide hydrochloride] — within 1.5-fold, 0.0142 µM
- Nc1nc2c(C(=O)NC3CN4CCC3CC4)ccc(F)c2o1 [Example 112, (S)—N-(quinulidin-8-yl)-2-amino-7-fluorobenzoxazole-4-carboxamide Hydrochloride] — 2.8-fold higher, 0.0333 µM
- CCOC(=O)N1C[C@H](C)N(c2nc3c(C(=O)NC4CC5CCCC(C4)N5C)cccc3o2)[C@@H](C)C1 (stereo partly drawn) [Example 144, Endo-N-(9-methyl-9-azabicyclo[3.3.1]nonan-3-yl)-2-((2S,6S)-4-(ethoxycarbonyl)-2,6-dimethylpiperazin-1-yl)benzoxazole-4-carboxamide Hydrochloride] — 12-fold lower, 0.001 µM
- C[C@H]1CN(C(=O)N2CCCC2)C[C@H](C)N1c1nc2c(C(=O)NC3CC4CCCC(C3)N4C)cccc2o1 (stereo partly drawn) [Example 140, Endo-N-(9-methyl-9-azabicyclo[3.3.1]nonan-3-yl)-2-((2S,6S)-2,6-dimethyl-4-(pyrrolidine-1-carbonyl)piperazin-1-yl)benzoxazole-4-carboxamide hydrochloride] — 5.4-fold lower, 0.0022 µM
- CN1[C@@H]2CCC[C@H]1C[C@@H](NC(=O)c1cccc3oc(NC4CNC4)nc13)C2 [Example 16, Endo-N-(9-Methyl-9-azabicyclo[3.3.1]non-3-yl)-2-(azetidin-3-ylamino)benzoxazole-4-carboxamide Dihydrochloride] — 15-fold higher, 0.179 µM
- C[C@@H]1CN(c2nc3c(C(=O)N[C@@H]4CN5CCC4CC5)cccc3o2)C[C@H](C)O1 [Example 18, (S)—N-(quinuclidine-8-yl)-2-((2S,6R)-2,6-dimethylmorpholino)benzoxazole-4-carboxamide Hydrochloride] — 37-fold higher, 0.443 µM
- CCNc1nc2c(C(=O)NC3CN4CCC3CC4)cccc2o1 [Example 104, (S)—N-(Quinulidin-8-yl)-2-ethylaminobenzoxazole-4-carboxamide Hydrochloride] — within 1.5-fold, 0.0135 µM
- C[C@H]1CNC[C@H](C)N1c1nc2c(C(=O)NC3CN4CCC3CC4)cccc2o1 (stereo partly drawn) [Example 99, Hydrochloride] — within 1.5-fold, 0.0132 µM
- O=C(N[C@@H]1CN2CCC1CC2)c1cccc2oc(N3CCNCC3)nc12 [Example 22, (S)—N-(quinuclidine-8-yl)-2-(piperazin-1-yl)benzoxazole-4-carboxamide Dihydrochloride] — 27-fold higher, 0.321 µM
- CC[C@H]1CNCCN1c1nc2c(C(=O)NC3CC4CCCC(C3)N4C)cccc2o1 (stereo partly drawn) [Example 84, Endo-N-(9-Methyl-9-azabicyclo[3.3.1]nonan-3-yl)-2-((S)-2-ethylpiperazine-1-yl)benzoxazole-4-carboxamide Hydrochloride] — within 1.5-fold, 0.0113 µM
- C[C@H]1C(=O)NCCN1c1nc2c(C(=O)NC3CC4CCCC(C3)N4C)cccc2o1 (stereo partly drawn) [Example 98, Endo-N-(9-Methyl-9-azabicyclo[3.3.1]nonan-3-yl)-2-((S)-2-methyl-3-oxopiperazine-1-yl)benzoxazole-4-carboxamide Hydrochloride] — within 1.5-fold, 0.0146 µM
- CC(=O)N1C[C@H](C)N(c2nc3c(C(=O)NC4CC5CCCC(C4)N5C)cccc3o2)[C@@H](C)C1 (stereo partly drawn) [Example 110, Endo-N-(9-Methyl-9-azabicyclo[3.3.1]nonan-3-yl)-2-((2S,6S)-4-acetyl-2,6-dimethylpiperazin-1-yl)benzoxazole-4-carboxamide Hydrochloride] — 5.4-fold lower, 0.0022 µM
- CCC[C@H]1COCCN1c1nc2c(C(=O)NC3CC4CCCC(C3)N4C)cccc2o1 (stereo partly drawn) [Example 66, Endo-N-(9-Methyl-9-azabicyclo[3.3.1]nonan-3-yl)-2-((S)-3-propylmorpholino)benzoxazole-4-carboxamide Hydrochloride] — 2.9-fold lower, 0.0041 µM
- C[C@H]1CN(C(=O)N2CCCCC2)C[C@H](C)N1c1nc2c(C(=O)NC3CC4CCCC(C3)N4C)cccc2o1 (stereo partly drawn) [Example 141, Endo-N-(9-methyl-9-azabicyclo[3.3.1]nonan-3-yl)-2-((2S,6S)-2,6-dimethyl-4-(piperidine-1-carbonyl)piperazin-1-yl)benzoxazole-4-carboxamide hydrochloride] — 6.6-fold lower, 0.0018 µM
- C[C@H]1CN(S(C)(=O)=O)C[C@H](C)N1c1nc2c(C(=O)NC3CC4CCCC(C3)N4C)cccc2o1 (stereo partly drawn) [Example 131, Endo-N-(9-methyl-9-azabicyclo[3.3.1]nonan-3-yl)-2-((2S,6S-2,6-dimethyl-4-(methylsulfonyl)piperazin-1-yl)benzoxazole-4-carboxamide Hydrochloride] — 12-fold lower, 0.001 µM
- CCN(C)c1nc2c(C(=O)N[C@@H]3CN4CCC3CC4)cccc2o1 [Example 83, (S)—N-(quinuclidine-8-yl)-2-(ethyl(methyl)amino)benzoxazole-4-carboxamide Hydrochloride] — 1.8-fold lower, 0.0068 µM
- C[C@H]1CN(Cc2ccccc2)C(=O)[C@H](C)N1c1nc2c(C(=O)NC3CC4CCCC(C3)N4C)cccc2o1 (stereo partly drawn) [Example 97, Endo-N-(9-Methyl-9-azabicyclo[3.3.1]nonan-3-yl)-2-((2S,6S)-4-benzyl-2,6-dimethyl-3-oxopiperazine-1-yl)benzoxazole-4-carboxamide Hydrochloride] — 30-fold lower, 0.0004 µM
- C[C@H]1CNC[C@H](C)N1c1nc2c(C(=O)NC3CC4CCCC(C3)N4C)cccc2o1 (stereo partly drawn) [Example 73, Endo-N-(9-Methyl-9-azabicyclo[3.3.1]nonan-3-yl)-2-((2S,6S)-2,6-dimethylpiperazin-1-yl)benzoxazole-4-carboxamide Hydrochloride] — 5.4-fold lower, 0.0022 µM
- CC(C)[C@H]1CN(c2nc3c(C(=O)NC4CC5CCCC(C4)N5C)cccc3o2)CCN1 (stereo partly drawn) [Example 78, Hydrochloride] — 2.2-fold higher, 0.0258 µM
- CC(C)C[C@H]1CN(Cc2ccccc2)CCN1c1nc2c(C(=O)NC3CC4CCCC(C3)N4C)cccc2o1 (stereo partly drawn) [Example 71, Endo-N-(9-Methyl-9-azabicyclo[3.3.1]nonan-3-yl)-2-((2S)-2-isobutyl-4-benzylpiperazin-1-yl)benzoxazole-4-carboxamide Hydrochloride] — 4.1-fold higher, 0.0486 µM
- C[C@H]1CN(CC2CC2)C[C@H](C)N1c1nc2c(C(=O)NC3CC4CCCC(C3)N4C)cccc2o1 (stereo partly drawn) [Example 119, Endo-N-(9-methyl-9-azabicyclo[3.3.1]nonan-3-yl)-2-((2S,6S)-4-(cyclopropylmethyl)-2,6-dimethylpiperazin-1-yl)benzoxazole-4-carboxamide Hydrochloride] — 1.8-fold lower, 0.0066 µM
- CN1[C@@H]2CCC[C@H]1C[C@@H](NC(=O)c1cccc3oc(N4CCC[C@H]4C(N)=O)nc13)C2 [Example 53, Endo-N-(9-Methyl-9-azabicyclo[3.3.1]non-3-yl)-2-((S)-2-carbamoylpyrrolidin-1-yl)benzoxazole-4-carboxamide Hydrochloride] — 18-fold higher, 0.212 µM
- CC1CN(C(=O)N2CCCC2)CC(C)N1c1nc2c(C(=O)NC3CC4CCCC(C3)N4)cccc2o1 [Example 146, Endo-N-(9-azabicyclo[3.3.1]nonan-3-yl)-2-((2S,6S)-2,6-dimethyl-4-(pyrrolidine-1-carbonyl)piperazin-1-yl)benzoxazole-4-carboxamide hydrochloride] — 2.7-fold higher, 0.0322 µM
